Entries after “also recorded” stand apart in the source; their conditions may differ.
Assays:
HER2 [1] = conditions: report by Smith-Jones and co-workers (36); cited from earlier work
SKOV-3 cells = test: In vitro uptake assay in SKOV-3 cells (blocking, siRNA, drug treatment, specific activity); type: cell-based, human; conditions: NVP-AUY922 for 24 h
Description: For siRNA-mediated HER2 knockdown, SKOV-3 cells were transfected with 25 nM scramble control (SCR; Dharmacon, Lafayette, Colo., ON-TARGETplus Non-targeting Pool, Cat. Nr: D-001810-10-05) or HER2-targeting siRNA (Invitrogen ERBB2 Silencer® Select Validated siRNA; Cat. Nr: 4457298) by reverse wet transfection with Lipofectamine RNAiMAX (Invitrogen) according to manufacturer's instructions. 3×10^5 cells were seeded in 12-well plates 48 h prior to uptake experiment. Target knockdown was verified by western blotting on cells that were transfected in parallel.
For all uptake studies in response to drug treatment, 2.5×10^5 SKOV-3 cells were seeded in complete medium 48 h prior to uptake experiments.
For baseline uptake in HER2 positive or negative lineages, 3×10^5 cells were seeded in complete media in 12-well plates (Corning, Tewksbury Mass.) and allowed to recover overnight. Cells were washed twice with serum-free medium and pulsed with 370 KBq in 500 μL serum-free medium for one h. For blocking studies, cells were co-incubated with tracer and 0.5 mg/mL cold unlabeled [^19F]GE-226[SEQ ID NO 1].
Cells were washed with PBS, trypsinized, neutralized with complete medium and centrifuged. The pellet was washed three times with PBS and lysed in 120 μL RIPA buffer (Sigma-Aldrich). The radioactivity of 100 μL lysate was counted on a Packard Cobra II gamma counter (Perkin Elmer). Radioactivity was normalized to applied radioactivity and protein content, which was determined for each sample by BCA assay (Pierce, Rockford, Ill.).

HER2 [2] = test: Western blot of HER2 protein expression in drug-treated SKOV-3 cells; type: cell-based, human; conditions: NVP-AUY922 for 24 h, compared to untreated controls
Description: For all uptake studies in response to drug treatment, 2.5×10^5 SKOV-3 cells were seeded in complete medium 48 h prior to uptake experiments. […] Cells were lysed in RIPA buffer containing protease and phosphatase inhibitors (from Sigma-Aldrich). Equal amounts of protein (20 μg) were resolved on 4-15% mini-protean TGX gels (Biorad, Hercules, Calif.) and transferred to PVDF membranes (Trans-Blot Turbo Transfer Packs, Biorad). Membranes were blocked for 1 h in 5% milk in Tris-buffered saline containing 0.1% v/v tween (TBST, Cell Signaling, Danvers, Mass.) and incubated with antibodies against HER2 (Cell Signal, Cat. Nr: 2165 for visualization of p95HER2 and full-length HER2 bands and Cat. Nr: 4290 for blots where only full-length HER2 is shown), EGFR (Cell Signal, Cat. Nr: 4267) or (3-actin (Abcam, Cambridge, United Kingdom, Cat. Nr: ab6276) overnight at 4° C. Secondary HRP-conjugated mouse and rabbit antibodies (Santa Cruz Biotechnology, Dallas, Tex.) were applied for one h at room temperature. Signals were visualized using Amersham ECL™ Western Blotting Detection Reagent (GE Healthcare) and Amersham Hyper-film (GE Healthcare).

SKOV-3 xenografts = test: PET-CT imaging and kinetic modeling, SKOV-3 xenografts; type: in vivo, mice
Description: […] […] To investigate response to HSP90 inhibition, SKOV-3 xenograft-bearing mice were treated with 50 mg/kg NVP-AUY922 or equivalent volume of vehicle (˜5 μL/g body weight; 10% DMSO and 5% Tween-20 in PBS) q.d. i.p. for three days. 24 h after the last treatment, animals were used for PET imaging.
Mice were anesthetized through isoflurane inhalation and scanned on a dedicated small animal PET-CT scanner (Siemens Multimodality Inveon, Erlangen, Germany). Low dose CT scans were first acquired (80 kVp, 0.5 mA, 220 degree rotation, 600 ms per degree exposure time, 80 μm reconstruction pixel size) for PET attenuation correction and to obtain an anatomical reference. PET images were acquired following a bolus i.v. injection of approximately 3.7 MBq [^18F]GE-226 in the tail vein. Dynamic emission scans were acquired in list mode format over 60 minutes. The acquired data were sorted into 0.5-mm sinogram bins and 19 time frames for image reconstruction by filtered back projection (4×15 seconds and 4×60 seconds followed by 11×300 seconds). The Siemens Inveon Research Workplace software was used for visualization of radiotracer uptake. 30 to 60-minute cumulative images of the dynamic data were employed to define 3-dimensional (3D) regions of interest (ROI). Arterial input function was estimated by drawing ROIs over the center of the heart cavity using 0.25 to 2 minutes of cumulative images. The count densities were averaged for all ROIs at each time point to obtain time versus radioactivity curves (TAC). Tumor TACs were normalized to injected dose measured by a VDC-304 dose calibrator (Veenstra Instruments, Joure, Netherlands) and normalized uptake was expressed as percentage injected dose per mL tissue (NUV; % ID/mL). Normalized uptake of radiotracer at 60 minutes (NUV60) was used for comparisons. For qualitative image visualization, cumulative images of the dynamic data (30 to 60 min) were also iteratively reconstructed (OSEM3D).
Kinetic analysis of PET data was performed applying a standard two-tissue irreversible compartmental model to fit each tumor TAC with the corresponding image-derived plasma TAC as input function (IF) to estimate K1 (mL/cm^3/min), k2, (1/min) and k3 (1/min) and the blood vascular component Vb (mL blood/mL tissue; unitless). The irreversible uptake rate Ki (mL/cm^3/min) was computed as K1×k3/(k2+k3). To estimate the kinetic parameters the measured tumor TAC (tTAC) was modeled as tTAC(t)=(1−Vb)h(t)⊗IF(t)+VbIF(t) with h(t) indicating the unknown tissue impulse function and ⊗ the convolution operator. The parameter vector p=[K1, k2, k3, Vb] was estimated with the standard Weighted Non-Linear Least Squares (WNLLS) by minimizing the Weighted Residual Sum of Squares (WRSS) function

HER2 [3] = test: HER2 expression in SKOV-3 tumors after NVP-AUY922; type: in vivo, mice; conditions: 3 doses of 50 mg/kg NVP-AUY922 versus vehicle
Description: For blocking studies, SKOV-3 xenograft bearing mice were administered 500 μg (˜25 mg/kg) cold [^19F]GE-226[SEQ ID NO 1] intravenously (i.v.) through the tail vain 20 minutes before administration of radiotracer. […] To investigate response to HSP90 inhibition, SKOV-3 xenograft-bearing mice were treated with 50 mg/kg NVP-AUY922 or equivalent volume of vehicle (˜5 μL/g body weight; 10% DMSO and 5% Tween-20 in PBS) q.d. i.p. for three days. 24 h after the last treatment, animals were used for PET imaging.
Excised and snap frozen tumor tissue samples were homogenized in RIPA lysis buffer (Sigma-Aldrich) with the PreCellys 24 homogenizer and CK14 beads-containing tubes (two cycles of 25 seconds at 6500 rpm). HER2 expression was determined by ELISA (Calbiochem, Darmstadt, Germany, c-ErbB2/c-Neu Rapid Format ELISA Ki, Cat. Nr: QIA10-1EA) according to manufacturer's instructions.

NCI-N87 tumors = test: Fluorescent GE-226 localization versus DAKO HercepTest, NCI-N87 tumors; type: in vivo, mice; conditions: 15 mg/kg i.v., tumors excised two h post injection
Description: (§1) The bilateral A431/NCI-N87 model was established by s.c. injection of A431 (1×10^7 cells) and NCI-N87 cells (2×10^6 cells) in 100 μL PBS mixed 1:1 with Matrigel™ in the lower flanks of 4-6 week old male CD-1 nude mice (Charles River Laboratories, Wilmington, Mass.). Tumor volumes were monitored frequently as described above and when they reached 50-100 mm^3 (approximately 3-4 weeks), mice were administered a mixture of Hoechst (˜20 mg/kg) and fluorescein-conjugated-GE226[SEQ ID NO 1] (˜15 mg/kg) in 100 μL PBS i.v. through the tail vein. The tumors were excised 120 minutes post injection, immediately fixed in formalin and embedded in paraffin. Sections were sliced and stored in the dark at −80° C. Immunofluorescent images were acquired at 400× magnification. Adjacent tumor sections were immunohistochemically stained with HercepTest™.
(§2) HER2 protein expression in excised tumors was assessed using the HercepTest™ (Dako, Ely, United Kingdom, Cat. Nr: K5204) according to manufacturer's instructions.
(§3) To examine cellular localization, GE-226[SEQ ID NO 1] was labeled with fluorescein and compared localization and fluorescent intensity in tumor sections with FDA approved DAKO HercepTest™. In contrast to PET experiments, normalization to injected dose is not possible with fluorescent compounds. To eliminate inter-subject variability, experiments were performed in bilateral tumor-bearing mice. […]

A431 tumors = test: Fluorescent GE-226 localization versus DAKO HercepTest, A431 tumors; type: in vivo, mice; conditions: 15 mg/kg i.v., tumors excised two h post injection; HER2 negative
Description: as §1, §2, §3

C=CCNC1=C2C[C@@H](C)C[C@H](OC)[C@H](O)[C@@H](C)/C=C(\C)[C@H](OC(N)=O)[C@@H](OC)/C=C\C=C(/C)C(=O)NC(=CC1=O)C2=O [17-allylaminogeldanamycin]
effect on HER2 (HER2 [1]): degrades HER2

CCNC(=O)c1noc(-c2cc(C(C)C)c(O)cc2O)c1-c1ccc(CN2CCOCC2)cc1 [NVP-AUY922, reference compound]
effect on tracer uptake in SKOV-3 cells (SKOV-3 cells): reduced tracer uptake | effect on HER2 protein expression (HER2 [2]): dose-dependent HER2 degradation; also recorded: dose-dependent decrease of HER2 protein expression | effect on tracer uptake in vivo (SKOV-3 xenografts; 3 doses of 50 mg/kg NVP-AUY922): decreased tracer uptake | AUC0_60 of [18F]GE-226 after drug (SKOV-3 xenografts; three daily doses of 50 mg/kg NVP-AUY922, vehicle 618.4±90.1, P=0.043): 446.7±42.8 % ID/mL*min | NUV60 of [18F]GE-226 after drug (SKOV-3 xenografts; three daily doses of 50 mg/kg NVP-AUY922 i.p., vehicle 13.5±2.1): 9.0±0.9 % ID/mL | effect on HER2 expression in tumors (HER2 [3]): reduced HER2 expression

fluorescein-GE-226: GE-226[SEQ ID NO 1] labeled with fluorescein
localization of fluorescent staining versus HER2 (NCI-N87 tumors): co-localized with regions that are HER2 positive | localization of fluorescent staining versus HER2 (NCI-N87 tumors; listed as fluorescently labeled tracer analogue): co-localized with HER2 expression at the cellular level | fluorescent staining (A431 tumors): negligible

Reference: patent publication US10646600B2, “HER2 polypeptides useful for imaging and monitoring tumors and cancers” (GE HEALTHCARE LIMITED, priority 2013, dated 2020)
